Experimental data taken from patent publication US20260356819A1, “OXOISOINDOLINYL-SUBSTITUTED […] DERIVATIVE AND USE THEREOF” (GLUETACS THERAPEUTICS (SHANGHAI) CO., LTD., priority 2023, published 2026).

Key:
IKZF3 = biological target: T1, IKZF3 (Homo sapiens, UniProt Q96SW2+Q9UKT9); test: Western blot degradation of IKZF3 in hPBMCs (24 h); assay type: cell-based; conditions: compounds at 50 nM and 500 nM
T1 construct: The supernatant was aspirated as the extracted total cell protein; endogenous in cells; host or cells: human peripheral blood mononuclear cells (hPBMCs)
T1 sequence (Q9UKT9 whole entry): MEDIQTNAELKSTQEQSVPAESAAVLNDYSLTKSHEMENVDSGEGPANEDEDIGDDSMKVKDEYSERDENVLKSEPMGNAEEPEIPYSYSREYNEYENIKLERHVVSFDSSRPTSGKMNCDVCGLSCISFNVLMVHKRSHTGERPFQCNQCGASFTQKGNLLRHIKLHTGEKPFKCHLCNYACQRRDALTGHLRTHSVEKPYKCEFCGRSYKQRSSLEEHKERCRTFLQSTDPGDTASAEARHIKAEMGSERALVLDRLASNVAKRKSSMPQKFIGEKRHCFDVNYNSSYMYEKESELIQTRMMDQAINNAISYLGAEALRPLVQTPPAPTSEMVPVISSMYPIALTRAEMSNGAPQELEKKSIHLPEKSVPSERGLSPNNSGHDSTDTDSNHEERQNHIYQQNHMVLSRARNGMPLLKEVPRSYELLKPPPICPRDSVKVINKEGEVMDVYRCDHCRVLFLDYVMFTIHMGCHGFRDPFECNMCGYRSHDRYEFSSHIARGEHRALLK
T1 sequence (Q96SW2 whole entry): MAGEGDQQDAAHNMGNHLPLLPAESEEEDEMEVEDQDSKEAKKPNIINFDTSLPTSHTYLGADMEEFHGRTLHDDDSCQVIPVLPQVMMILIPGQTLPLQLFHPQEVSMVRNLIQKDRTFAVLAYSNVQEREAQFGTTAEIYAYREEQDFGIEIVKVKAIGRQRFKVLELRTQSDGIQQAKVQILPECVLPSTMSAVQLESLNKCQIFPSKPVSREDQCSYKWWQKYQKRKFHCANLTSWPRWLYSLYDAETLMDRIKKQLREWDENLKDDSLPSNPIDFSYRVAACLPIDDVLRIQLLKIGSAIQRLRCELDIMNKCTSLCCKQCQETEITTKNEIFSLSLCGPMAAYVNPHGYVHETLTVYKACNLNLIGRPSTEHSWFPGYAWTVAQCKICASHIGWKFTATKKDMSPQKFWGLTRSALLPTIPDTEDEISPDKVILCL
T1 sequence (Q16531 whole entry partner): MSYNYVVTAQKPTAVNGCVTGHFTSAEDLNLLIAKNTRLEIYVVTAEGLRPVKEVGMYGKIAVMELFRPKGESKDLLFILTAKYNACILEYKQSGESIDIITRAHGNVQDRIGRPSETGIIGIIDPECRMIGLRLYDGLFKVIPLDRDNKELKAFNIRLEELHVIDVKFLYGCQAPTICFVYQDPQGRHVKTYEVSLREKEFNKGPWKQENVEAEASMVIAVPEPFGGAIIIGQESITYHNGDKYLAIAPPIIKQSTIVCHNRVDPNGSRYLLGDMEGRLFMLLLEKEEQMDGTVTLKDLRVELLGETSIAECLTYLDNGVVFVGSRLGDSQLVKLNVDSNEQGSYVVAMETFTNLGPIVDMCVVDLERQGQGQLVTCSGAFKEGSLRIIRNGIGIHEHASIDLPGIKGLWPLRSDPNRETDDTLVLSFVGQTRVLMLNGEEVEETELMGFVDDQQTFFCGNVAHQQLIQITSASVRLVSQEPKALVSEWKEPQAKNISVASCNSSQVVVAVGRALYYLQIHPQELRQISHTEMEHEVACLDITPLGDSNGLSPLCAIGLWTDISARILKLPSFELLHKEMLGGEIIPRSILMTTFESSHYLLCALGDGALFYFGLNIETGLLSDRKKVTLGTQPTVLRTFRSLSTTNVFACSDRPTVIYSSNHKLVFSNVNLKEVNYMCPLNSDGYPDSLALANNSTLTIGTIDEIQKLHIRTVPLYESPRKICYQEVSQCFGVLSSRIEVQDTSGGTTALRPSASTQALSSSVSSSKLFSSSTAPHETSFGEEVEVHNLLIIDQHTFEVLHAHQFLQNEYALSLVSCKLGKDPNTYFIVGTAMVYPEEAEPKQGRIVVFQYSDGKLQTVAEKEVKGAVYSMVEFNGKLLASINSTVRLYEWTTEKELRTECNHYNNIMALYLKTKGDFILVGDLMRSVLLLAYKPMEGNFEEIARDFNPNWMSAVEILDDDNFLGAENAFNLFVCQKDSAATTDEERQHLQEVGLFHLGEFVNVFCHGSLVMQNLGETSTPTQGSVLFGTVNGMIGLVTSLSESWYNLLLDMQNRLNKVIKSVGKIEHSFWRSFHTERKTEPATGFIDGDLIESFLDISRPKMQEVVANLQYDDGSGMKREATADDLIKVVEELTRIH
Method in brief: (§1)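 Degradation in primary human PBMCs after 24 h compound exposure at 50 and 500 nM. Western blot band intensities, normalised to an internal control protein, expressed as % protein remaining relative to DMSO.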

GSPT1 = biological target: T2, GSPT1 (Homo sapiens, UniProt P15170+Q96SW2); test: Western blot degradation of GSPT1 in hPBMCs (24 h); assay type: cell-based; conditions: compounds at 50 nM and 500 nM
T2 construct: The supernatant was aspirated as the extracted total cell protein; endogenous in cells; host or cells: human peripheral blood mononuclear cells (hPBMCs)
T2 sequence (P15170 whole entry): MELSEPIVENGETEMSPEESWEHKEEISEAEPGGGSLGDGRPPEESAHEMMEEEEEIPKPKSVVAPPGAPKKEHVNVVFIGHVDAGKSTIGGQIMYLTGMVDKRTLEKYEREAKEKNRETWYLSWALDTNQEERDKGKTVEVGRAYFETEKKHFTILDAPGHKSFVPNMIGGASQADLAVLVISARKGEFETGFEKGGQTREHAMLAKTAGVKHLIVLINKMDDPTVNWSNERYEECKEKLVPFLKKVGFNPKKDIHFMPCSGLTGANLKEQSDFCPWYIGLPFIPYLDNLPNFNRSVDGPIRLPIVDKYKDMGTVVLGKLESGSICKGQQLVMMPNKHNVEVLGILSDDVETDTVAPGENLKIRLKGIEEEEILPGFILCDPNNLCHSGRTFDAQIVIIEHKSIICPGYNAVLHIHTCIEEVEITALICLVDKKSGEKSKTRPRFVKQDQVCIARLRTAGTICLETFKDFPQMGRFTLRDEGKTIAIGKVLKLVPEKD
T2 sequence (Q96SW2 whole entry): as the sequence (Q96SW2 whole entry) above
T2 sequence (Q16531 whole entry partner): as the sequence (Q16531 whole entry partner) above
Method in brief: as §1

IKZF1 = biological target: T3, IKZF1 (Homo sapiens, UniProt Q13422+Q96SW2); test: Western blot degradation of IKZF1 in hPBMCs (24 h); assay type: cell-based; conditions: compounds at 50 nM and 500 nM
T3 construct: The supernatant was aspirated as the extracted total cell protein; endogenous in cells; host or cells: human peripheral blood mononuclear cells (hPBMCs)
T3 sequence (Q13422 whole entry): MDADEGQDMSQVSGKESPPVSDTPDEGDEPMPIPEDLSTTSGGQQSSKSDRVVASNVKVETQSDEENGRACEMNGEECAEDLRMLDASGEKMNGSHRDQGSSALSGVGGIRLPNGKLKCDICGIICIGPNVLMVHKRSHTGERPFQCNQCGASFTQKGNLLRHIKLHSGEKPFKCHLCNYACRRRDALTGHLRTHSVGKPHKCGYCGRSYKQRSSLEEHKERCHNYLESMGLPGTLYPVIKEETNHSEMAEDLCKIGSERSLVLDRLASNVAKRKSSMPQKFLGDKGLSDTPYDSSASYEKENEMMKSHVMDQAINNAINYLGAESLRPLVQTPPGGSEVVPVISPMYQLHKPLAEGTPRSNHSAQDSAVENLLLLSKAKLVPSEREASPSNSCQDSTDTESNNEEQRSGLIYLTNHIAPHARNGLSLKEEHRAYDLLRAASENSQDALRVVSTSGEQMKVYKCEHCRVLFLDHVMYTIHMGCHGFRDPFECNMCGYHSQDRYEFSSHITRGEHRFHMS
T3 sequence (Q96SW2 whole entry): as the sequence (Q96SW2 whole entry) above
T3 sequence (Q16531 whole entry partner): as the sequence (Q16531 whole entry partner) above
Method in brief: as §1

WEE1 = biological target: T4, WEE1 (Homo sapiens, UniProt P30291+Q96SW2); test: Western blot degradation of WEE1 in hPBMCs (24 h); assay type: cell-based; conditions: compounds at 50 nM and 500 nM
T4 construct: The supernatant was aspirated as the extracted total cell protein; endogenous in cells; host or cells: human peripheral blood mononuclear cells (hPBMCs)
T4 sequence (P30291 whole entry): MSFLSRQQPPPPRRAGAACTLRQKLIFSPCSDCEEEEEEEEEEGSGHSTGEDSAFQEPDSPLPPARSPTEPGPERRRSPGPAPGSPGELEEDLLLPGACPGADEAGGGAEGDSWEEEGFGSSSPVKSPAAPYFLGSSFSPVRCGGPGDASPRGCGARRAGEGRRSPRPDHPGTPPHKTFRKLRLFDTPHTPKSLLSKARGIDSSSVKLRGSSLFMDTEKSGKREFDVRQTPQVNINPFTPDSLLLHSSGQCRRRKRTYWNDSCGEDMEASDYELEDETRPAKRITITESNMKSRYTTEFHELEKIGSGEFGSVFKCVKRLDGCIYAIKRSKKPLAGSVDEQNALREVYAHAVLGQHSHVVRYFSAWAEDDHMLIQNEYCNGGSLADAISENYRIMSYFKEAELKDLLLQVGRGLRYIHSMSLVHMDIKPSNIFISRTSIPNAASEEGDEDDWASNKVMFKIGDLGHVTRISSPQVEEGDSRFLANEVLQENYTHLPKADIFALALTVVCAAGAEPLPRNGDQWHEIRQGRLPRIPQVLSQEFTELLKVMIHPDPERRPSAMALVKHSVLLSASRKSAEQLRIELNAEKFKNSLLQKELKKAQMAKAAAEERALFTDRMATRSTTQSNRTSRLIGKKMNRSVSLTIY
T4 sequence (Q96SW2 whole entry): as the sequence (Q96SW2 whole entry) above
T4 sequence (Q16531 whole entry partner): as the sequence (Q16531 whole entry partner) above
Method in brief: as §1

MM.1S cells = test: Inhibition of proliferation of multiple myeloma cells MM.1S (cell viability assay, 96 h); assay type: cell-based, human; conditions: read-out: inhibitory activity (IC50) against tumor cells proliferation, MM.1S
Description: (§2) The tumor cells used herein were cultured in a cell culture medium listed in table 2 at 37 °C in an incubator with 5% CO2. Prior to experimentation, all cell lines used were correctly identified by STR profiling, and tested negative for Mycoplasma contamination using a Mycoplasma detection kit through routine screenings.
(§3) The IC50 values of the compounds of the present disclosure (including the compounds in Table 1, and Examples 1-498) were determined using the CellTiter-Meiluncell Luminescent Cell Viability Assay Kit from Dalian Meilun Biotech Co., Ltd. The detailed procedure is as follows: Tumor cells were seeded in 96-well cell culture plates at the densities specified in Table 3. On the following day, the test compounds of the present disclosure were subjected to serial dilution. […] Subsequently, 0.5 μL of the test compound dilution was transferred into the 96-well plate containing the cells, with each well containing 100 μL of cell culture medium. […] Into the 96-well plate, the diluted test compounds and corresponding detection reagents were added, resulting in final test compound concentrations of 500 nM and 10 nM, respectively. The experimental procedure is described below using the diluted 2 μM test compound as an example.
(§4) 0.5 μL of the aforementioned diluted compound of the present disclosure (including the compounds in Table 1, and Examples 1-498) was added to the seeded cells in 100 μL of medium, yielding a final test compound concentration of 10 nM. After the cells were treated with the compounds of the present disclosure for a specified period, the cell viability assay reagent was added to the culture medium according to the kit's instructions to determine cell viability. […] All controls were treated using the same procedure as the compounds of the present disclosure. The growth inhibition curves for the compounds of the present disclosure were plotted using Prism GraphPad software, and the IC50 values were calculated therefrom.

IKZF2 = biological target: T5, IKZF2 (Homo sapiens, UniProt Q96SW2+Q9UKS7); test: Western blot degradation of IKZF2 in hPBMCs (24 h); assay type: cell-based; conditions: compounds at 50 nM and 500 nM
T5 construct: The supernatant was aspirated as the extracted total cell protein; endogenous in cells; host or cells: human peripheral blood mononuclear cells (hPBMCs)
Method in brief: as §1

Jurkat cells = test: Inhibition of proliferation of T lymphocytic leukemia cells Jurkat (cell viability assay, 96 h); assay type: cell-based, human; conditions: read-out: inhibitory activity (IC50) against tumor cells proliferation, Jurkat
Description: as §2, §3, §4

CK1α = biological target: T6, CK1α (Homo sapiens, UniProt P48729+Q96SW2); test: Western blot degradation of CK1α in hPBMCs (24 h); assay type: cell-based; conditions: compounds at 50 nM and 500 nM
T6 construct: The supernatant was aspirated as the extracted total cell protein; endogenous in cells; host or cells: human peripheral blood mononuclear cells (hPBMCs)
T6 sequence (P48729 whole entry): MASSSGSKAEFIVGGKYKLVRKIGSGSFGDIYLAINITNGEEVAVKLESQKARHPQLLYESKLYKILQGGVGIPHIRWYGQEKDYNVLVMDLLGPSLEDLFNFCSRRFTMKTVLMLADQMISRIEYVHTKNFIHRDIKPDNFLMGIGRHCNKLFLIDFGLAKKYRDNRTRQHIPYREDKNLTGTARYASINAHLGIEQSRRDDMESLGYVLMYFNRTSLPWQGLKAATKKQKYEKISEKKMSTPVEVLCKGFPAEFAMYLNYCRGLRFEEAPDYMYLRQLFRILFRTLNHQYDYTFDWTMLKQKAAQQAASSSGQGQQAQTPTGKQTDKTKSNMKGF
T6 sequence (Q96SW2 whole entry): as the sequence (Q96SW2 whole entry) above
T6 sequence (Q16531 whole entry partner): as the sequence (Q16531 whole entry partner) above
Method in brief: as §1

SMILES	IKZF3 substrate protein remaining % (IKZF3)	GSPT1 substrate protein remaining % (GSPT1)	IKZF1 substrate protein remaining % (IKZF1)	WEE1 substrate protein remaining % (WEE1)	IC50 (MM.1S cells)	IKZF2 substrate protein remaining % (IKZF2)	IC50 (Jurkat cells)	CK1α substrate protein remaining % (CK1α)
O=C1CCN(N2Cc3cc(CN4CC=C(c5ccco5)CC4)ccc3C2=O)C(=O)N1 [GT-04874, 1-(5-((4-(furan-2-yl)-3,6-dihydropyridin-1(2H)-yl)methyl)-1-oxoisoindolin-2-yl)dihydropyrimidine-2,4(1H,3H)-dione]	A (0% ≤ substrate protein remaining % ≤80%)	A (0% ≤ substrate protein remaining % ≤80%)	A (0% ≤ substrate protein remaining % ≤80%)	A (0% ≤ substrate protein remaining % ≤80%)	100 to 300 nM	B (80%< substrate protein remaining % ≤100%)	500 to 1000 nM	B (80%< substrate protein remaining % ≤100%)
O=C1CCN(N2Cc3cc(CN4CC(=C5CCOc6cc(F)ccc65)C4)ccc3C2=O)C(=O)N1 [GT-05168, 1-(5-((3-(7-fluorochroman-4-ylidene)azetidin-1-yl)methyl)-1-oxoisoindolin-2-yl)dihydropyrimidine-2,4(1H,3H)-dione]	A (0% ≤ substrate protein remaining % ≤80%)	A (0% ≤ substrate protein remaining % ≤80%)	B (80%< substrate protein remaining % ≤100%)	B (80%< substrate protein remaining % ≤100%)	100 to 300 nM	B (80%< substrate protein remaining % ≤100%)		B (80%< substrate protein remaining % ≤100%)
O=C1CCN(N2Cc3cc(CN4CC(N5CCc6cc(F)ccc65)C4)ccc3C2=O)C(=O)N1 [GT-05169, 1-(5-((3-(5-fluoroindolin-1-yl)azetidin-1-yl)methyl)-1-oxoisoindolin-2-yl)dihydropyrimidine-2,4(1H,3H)-dione]	A (0% ≤ substrate protein remaining % ≤80%)	A (0% ≤ substrate protein remaining % ≤80%)	B (80%< substrate protein remaining % ≤100%)	B (80%< substrate protein remaining % ≤100%)	100 to 300 nM	A (0% ≤ substrate protein remaining % ≤80%)		B (80%< substrate protein remaining % ≤100%)
O=C1CCN(N2Cc3cc(CN4CC=C(c5nccc(Cl)c5Cl)CC4)ccc3C2=O)C(=O)N1 [GT-06392, 1-(5-((3,4-dichloro-3′,6′-dihydro-[2,4′-bipyridin]-1′ (2′H)-yl)methyl)-1-oxoisoindolin-2-yl)dihydropyrimidine-2,4(1H,3H)-dione]	A (0% ≤ substrate protein remaining % ≤80%)	A (0% ≤ substrate protein remaining % ≤80%)	B (80%< substrate protein remaining % ≤100%)	A (0% ≤ substrate protein remaining % ≤80%)	300 to 500 nM	A (0% ≤ substrate protein remaining % ≤80%)		A (0% ≤ substrate protein remaining % ≤80%)
O=C1CCN(N2Cc3cc(CN4CC=C(c5cncc(Cl)c5Cl)CC4)ccc3C2=O)C(=O)N1 [GT-06393, 1-(5-((4,5-dichloro-3′,6′-dihydro-[3,4′-bipyridin]-1′ (2′H)-yl)methyl)-1-oxoisoindolin-2-yl)dihydropyrimidine-2,4(1H,3H)-dione]	A (0% ≤ substrate protein remaining % ≤80%)	A (0% ≤ substrate protein remaining % ≤80%)	B (80%< substrate protein remaining % ≤100%)	A (0% ≤ substrate protein remaining % ≤80%)	500 to 1000 nM	A (0% ≤ substrate protein remaining % ≤80%)		A (0% ≤ substrate protein remaining % ≤80%)
CC1(C)CCC(CN2CC3CC(C2)N3Cc2ccc3c(c2)CN(N2CCC(=O)NC2=O)C3=O)=C(c2ccc(Cl)cc2)C1 [GT-06456, 1-(5-((3-((4′-chloro-5,5-dimethyl-3,4,5,6-tetrahydro-[1,1′-biphenyl]-2-yl)methyl)-3,6-diazabicyclo[3.1.1]heptan-6-yl)methyl)-1-oxoisoindolin-2-yl)dihydropyrimidine-2,4(1H,3H)-dione]	A (0% ≤ substrate protein remaining % ≤80%)	A (0% ≤ substrate protein remaining % ≤80%)	A (0% ≤ substrate protein remaining % ≤80%)	A (0% ≤ substrate protein remaining % ≤80%)	100 to 300 nM	A (0% ≤ substrate protein remaining % ≤80%)		A (0% ≤ substrate protein remaining % ≤80%)
O=C1CCN(N2C(=O)c3ccc(CN4CCN(c5ncc(C(F)(F)F)cc5Cl)CC4)cc3C2=O)C(=O)N1 [GT-07026, 5-((4-(3-chloro-5-(trifluoromethyl)pyridin-2-yl)piperazin-1-yl)methyl)-2-(2,4-dioxotetrahydropyrimidin-1(2H)-yl)isoindoline-1,3-dione]	B (80%< substrate protein remaining % ≤100%)	A (0% ≤ substrate protein remaining % ≤80%)	B (80%< substrate protein remaining % ≤100%)	A (0% ≤ substrate protein remaining % ≤80%)		B (80%< substrate protein remaining % ≤100%)	500 to 1000 nM	B (80%< substrate protein remaining % ≤100%)
O=C1CCN(N2Cc3cc(CN4CCC(c5ccsc5)CC4)ccc3C2=O)C(=O)N1 [GT-07371, 1-(1-oxo-5-((4-(thiophen-3-yl)piperidin-1-yl)methyl)isoindolin-2-yl)dihydropyrimidine-2,4(1H,3H)-dione]	A (0% ≤ substrate protein remaining % ≤80%)	A (0% ≤ substrate protein remaining % ≤80%)	B (80%< substrate protein remaining % ≤100%)	B (80%< substrate protein remaining % ≤100%)	500 to 1000 nM	B (80%< substrate protein remaining % ≤100%)		B (80%< substrate protein remaining % ≤100%)
Cc1ccc(C2CCN(Cc3ccc4c(c3)CN(N3CCC(=O)NC3=O)C4=O)CC2)s1 [GT-07425, 1-(5-((4-(5-methylthiophen-2-yl)piperidin-1-yl)methyl)-1-oxoisoindolin-2-yl)dihydropyrimidine-2,4(1H,3H)-dione]	B (80%< substrate protein remaining % ≤100%)	A (0% ≤ substrate protein remaining % ≤80%)	B (80%< substrate protein remaining % ≤100%)	B (80%< substrate protein remaining % ≤100%)	500 to 1000 nM	B (80%< substrate protein remaining % ≤100%)		B (80%< substrate protein remaining % ≤100%)
